{"source": "paper PMC10940318", "about": "“Targeted intracellular delivery of dimeric STINGa by two pHLIP peptides for treatment of solid tumors” (Frontiers in Pharmacology, 2024)", "key": {"[1]": {"assay": "Stopped-flow fluorescence kinetics of membrane insertion and exit", "assay_type": "physicochemical", "conditions": "POPC liposomes", "experimental": "Fluorescence kinetics was measured using a SFM-300 mixing system (Bio-Logic Science Instruments) in combination with the MOS-450 spectrometer with the temperature control set to 25°C. All samples were degassed before measurement to minimize air bubbles in the samples. pHLIP-mMSA/2pHLIP-dMSA and POPC samples were incubated overnight to reach equilibrium, when most of the agent was associated with liposome lipid bilayers. […] To follow exit of pHLIP-mMSA/2pHLIP-dMSA from the membrane, a low pH solution containing 14 μM pHLIP-mMSA/2pHLIP-dMSA and 2.8 mM POPC was mixed with dibasic phosphate buffer to raise the pH from 4 to 7.4. To monitor the fluorescence intensity changes during pHLIP-mMSA/2pHLIP-dMSA insertion induced by the pH change, the emission signal was observed through a cut-off 320 nm filter at an excitation of 295 nm."}, "[2]": {"assay": "Stability in human plasma", "assay_type": "in vitro ADME", "conditions": "single donor human plasma, 200 µM, 0-24 h at 37°C, methanol precipitation, HPLC C18, UV 220/280/325 nm", "quoted_text": "Plasma proteins were precipitated by methanol (1:5 volume ratio of plasma to methanol) and centrifuged for 10 min at 13.4 rpm. The supernatant was collected and analyzed by HPLC using a Zorbax SB-C18 4.6 × 250 mm, 5 μm column with a gradient from 20% to 80% acetonitrile in water containing 0.05% TFA. Chromatograms were recorded at 220 nm, 280 nm and 325 nm."}, "[3]": {"assay": "Blood clearance (PK) by whole blood fluorescence imaging", "assay_type": "in vivo, Balb/c mice", "experimental": "For biodistribution studies 5 × 10^4 of CT26 cancer cells were injected SQ in 100 µL of growth medium into the right flank of female Balb/c mice and tumors were grown until they reached 150–250 mm^3 in volume. Then a single retro-orbital (RO) injection of 50 μM 100 μL of 2(ICG-pHLIP)-dMSA was performed. Animals were euthanized at 5 min, 1, 4, 24, 48, 72, and 120 h post-injection, blood was collected in K2 EDTA vacutainer blood collection tubes (BD), and necropsy was performed immediately after animals were euthanized. Blood, tumors and major organs (kidney, liver, spleen, pancreas, lung, heart, large and small intestines, bone, muscle, brain) were collected, and imaged ex vivo immediately after necropsy. Blood (200 µL) was imaged in 96-well plates with black bottom and walls.\nThe in vivo and ex vivo bright field and near-infrared fluorescent imaging employed a Stryker 1588 AIM endoscopic system with L10 AIM Light Source (808 nm excitation and collection of light in the range of approximately of 815–850 nm), and a 1588 AIM Camera using a 10 mm scope. The lens was kept at a fixed distance from the surface of the organs, within an enclosed (light-protected) area. Calibration curves converting laser and gain settings were established by imaging of pHLIP-ICG solution at different concentrations. The ex vivo fluorescence imaging of tissue specimens was performed using three different laser settings and six different gain settings. The digital fluorescence images were split into RGB channels, with the green channel being analyzed using ImageJ program to calculate the average fluorescence intensity. All average intensities were adjusted based on their capture settings and using calibration curves to present fluorescence intensities corresponding to the unified (the same) settings."}, "CT26 cancer cells": {"tested_on": "CT26 cancer cells", "assay": "Re-challenge of tumor-free mice with CT26 cancer cells", "assay_type": "in vivo, Balb/c mice", "conditions": "11 survivors of both dose groups, contralateral flank, kept 40 more days", "source_text": "In the 2pHLIP-dMSA treated groups the mice that stayed tumor-free were re-challenged with tumor cells injected into the tumor-free flank on day 65 after the first injection of 2pHLIP-dMSA. Tumor-free mice were kept for an additional 40 days (total of 105 days after the treatment with 2pHLIP-dMSA) and then were euthanized."}}}
{"sequence": "ADQDNPWRAYLDLLFPTDTLLLDLLWCG [2pHLIP-dMSA]", "values": [{"measurement": "time to completion of insertion into the lipid bilayer", "setting": "[1]; pH drop from pH 7.4 to 4, 25°C, fluorescence ex 295 nm", "value": "≤ 100", "unit": "ms"}, {"measurement": "kinetics of membrane insertion (in words)", "setting": "[1]; pH drop from pH 7.4 to 6, compared with pHLIP-mMSA", "value": "more efficient and faster than the insertion of pHLIP-mMSA"}, {"measurement": "exit from the lipid bilayer (in words)", "setting": "[1]; pH rise from pH 4 to 7.4 and from pH 4 to 5.5, compared with pHLIP-mMSA", "value": "slightly slower"}, {"measurement": "stability in human plasma (in words)", "setting": "[2]", "value": "very high"}, {"measurement": "circulation in the blood", "setting": "[3]; mice, stated in discussion", "value": "1 to 2", "unit": "days"}, {"measurement": "blood clearance half-life", "setting": "[3]; single RO injection of 2(ICG-pHLIP)-dMSA 50 µM 100 µL, CT26 tumor-bearing female Balb/c mice, whole blood fluorescence, exponential fit", "value": "> 30", "unit": "h"}, {"measurement": "tumor development after re-injection of cancer cells on day 65", "setting": "CT26 cancer cells", "value": "none of them developed tumors"}]}
